# Data taken from paper PMC6193938, “Characterization of a novel AICARFT inhibitor which potently elevates ZMP and has anti-tumor activity in murine models” (Scientific Reports, 2018).
# Legend:
# cell lines of Table 1 = assay: Alamar Blue proliferation assay, average over cell lines; assay type: cell-based; settings: Homo sapiens
# Protocol: Cells lines were acquired from cell banks, see supplemental material, grown using the cell banks recommended culture conditions (Supplemental Table 3). In some experiments noted “low folate” the cells were washed and grown in folate free RPMI-1640 media (Gibco #27016-021) supplemented with 5 ml 1 M Hepes, 5 ml 100 mM Na pyruvate, 2.5 mg/ml glucose and 10% defined FBS (Hyclone #SH30070) per 500 mL media for 5–7 days to deplete intracellular folate levels prior to the start of the experiment. Where noted, cells were maintained in complete “high folate” RPMI-1640 media (ATCC #30-2001) with 10% defined FBS to contrast with the low folate conditions.
# Cells were cultured using recommended culture conditions unless noted otherwise (Supplemental Table 3). Cells were plated, dosed with compound and incubated at 37 °C for approximately 2 doubling times as determined for each cell line. Cell Titer Glo (Promega) assay was used to measure proliferation according to manufacturer’s recommendations by measuring luminescence with Flexstation3 (Molecular Devices) with 500 ms integration time. […]
# For a limited number of cell lines, compound dosing was performed under high or low folate conditions with cell viability being determined with Alamar Blue rather than an ATP dependent assay. […] The % inhibition for each sample was calculated and fit as described above.
# ERK1 = target: T1, ERK1 (Homo sapiens, UniProt P27361); assay: CEREP protein kinase assay; assay type: biochemical
# T1 construct: purchased CEREP Panlabs (Eurofins)
# T1 sequence (P27361 whole entry): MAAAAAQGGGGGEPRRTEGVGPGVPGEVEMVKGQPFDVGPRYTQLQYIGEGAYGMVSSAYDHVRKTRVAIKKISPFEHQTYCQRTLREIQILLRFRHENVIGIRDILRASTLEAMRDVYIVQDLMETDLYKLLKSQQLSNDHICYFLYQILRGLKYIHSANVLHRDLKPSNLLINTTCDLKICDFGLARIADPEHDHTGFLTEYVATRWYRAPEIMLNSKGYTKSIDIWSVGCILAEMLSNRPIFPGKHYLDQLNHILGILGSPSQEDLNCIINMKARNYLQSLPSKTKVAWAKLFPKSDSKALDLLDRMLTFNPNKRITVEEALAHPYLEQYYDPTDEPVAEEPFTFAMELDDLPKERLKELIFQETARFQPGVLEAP
# IKKe = target: T2, IKKe (Homo sapiens, UniProt Q14164); assay: CEREP protein kinase assay; assay type: biochemical
# T2 construct: purchased CEREP Panlabs (Eurofins)
# T2 sequence (Q14164 1-716): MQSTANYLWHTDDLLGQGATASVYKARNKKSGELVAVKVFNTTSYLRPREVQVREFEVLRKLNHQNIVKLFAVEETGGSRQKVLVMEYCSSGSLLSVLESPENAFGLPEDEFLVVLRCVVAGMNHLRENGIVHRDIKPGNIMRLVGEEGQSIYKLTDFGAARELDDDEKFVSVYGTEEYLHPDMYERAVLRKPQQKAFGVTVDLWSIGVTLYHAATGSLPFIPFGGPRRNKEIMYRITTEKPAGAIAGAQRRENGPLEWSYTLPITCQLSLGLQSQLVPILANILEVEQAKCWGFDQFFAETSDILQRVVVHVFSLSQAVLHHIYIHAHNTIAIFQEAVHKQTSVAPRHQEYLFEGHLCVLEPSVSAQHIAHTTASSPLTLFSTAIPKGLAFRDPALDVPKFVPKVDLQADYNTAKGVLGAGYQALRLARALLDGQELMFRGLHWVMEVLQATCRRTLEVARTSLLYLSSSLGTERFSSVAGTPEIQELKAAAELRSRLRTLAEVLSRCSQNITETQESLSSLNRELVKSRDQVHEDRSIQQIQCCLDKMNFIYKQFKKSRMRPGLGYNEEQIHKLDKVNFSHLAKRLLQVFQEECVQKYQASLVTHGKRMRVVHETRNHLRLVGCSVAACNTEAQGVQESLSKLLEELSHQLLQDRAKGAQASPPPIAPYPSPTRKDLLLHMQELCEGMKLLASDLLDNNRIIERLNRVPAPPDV
# IRK = target: T3, IRK (Homo sapiens, UniProt P06213); assay: CEREP protein kinase assay; assay type: biochemical
# T3 construct: purchased CEREP Panlabs (Eurofins)
# T3 sequence (P06213 28-1382): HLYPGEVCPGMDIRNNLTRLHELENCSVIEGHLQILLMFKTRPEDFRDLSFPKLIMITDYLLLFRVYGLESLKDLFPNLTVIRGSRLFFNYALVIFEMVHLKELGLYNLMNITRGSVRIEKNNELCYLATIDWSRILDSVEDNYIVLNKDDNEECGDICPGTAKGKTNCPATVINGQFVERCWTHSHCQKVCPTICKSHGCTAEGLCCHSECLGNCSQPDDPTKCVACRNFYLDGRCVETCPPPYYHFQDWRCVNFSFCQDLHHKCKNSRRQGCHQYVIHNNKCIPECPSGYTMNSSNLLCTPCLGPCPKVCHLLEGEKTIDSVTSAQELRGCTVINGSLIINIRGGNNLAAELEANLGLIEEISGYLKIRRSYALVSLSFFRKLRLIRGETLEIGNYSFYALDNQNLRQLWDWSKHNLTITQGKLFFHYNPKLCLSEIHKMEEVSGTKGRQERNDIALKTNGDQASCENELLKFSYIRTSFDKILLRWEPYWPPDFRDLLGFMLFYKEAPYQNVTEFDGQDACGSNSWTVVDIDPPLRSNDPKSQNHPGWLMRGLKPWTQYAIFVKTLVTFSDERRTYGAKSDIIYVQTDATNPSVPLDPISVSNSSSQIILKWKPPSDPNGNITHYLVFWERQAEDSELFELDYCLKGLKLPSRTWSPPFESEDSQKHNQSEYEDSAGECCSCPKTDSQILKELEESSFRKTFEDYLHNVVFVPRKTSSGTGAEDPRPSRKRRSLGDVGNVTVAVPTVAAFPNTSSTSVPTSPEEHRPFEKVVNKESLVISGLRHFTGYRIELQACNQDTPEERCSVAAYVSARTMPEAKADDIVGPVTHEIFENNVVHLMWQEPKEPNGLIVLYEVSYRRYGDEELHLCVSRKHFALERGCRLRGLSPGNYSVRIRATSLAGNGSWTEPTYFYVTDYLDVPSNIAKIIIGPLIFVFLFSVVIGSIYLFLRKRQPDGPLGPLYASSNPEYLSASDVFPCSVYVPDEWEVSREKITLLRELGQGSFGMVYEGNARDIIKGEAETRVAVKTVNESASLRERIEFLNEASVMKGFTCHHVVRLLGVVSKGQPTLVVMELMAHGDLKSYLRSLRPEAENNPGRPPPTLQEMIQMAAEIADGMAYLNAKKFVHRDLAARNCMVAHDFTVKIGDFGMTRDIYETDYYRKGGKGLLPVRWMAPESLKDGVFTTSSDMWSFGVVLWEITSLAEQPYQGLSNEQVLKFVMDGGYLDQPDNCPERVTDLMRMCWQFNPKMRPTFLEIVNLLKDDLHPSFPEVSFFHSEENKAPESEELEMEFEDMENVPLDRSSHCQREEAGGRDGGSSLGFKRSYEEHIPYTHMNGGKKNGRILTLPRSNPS
# JAK3 = target: T4, JAK3 (Homo sapiens, UniProt P52333); assay: CEREP protein kinase assay; assay type: biochemical
# T4 construct: purchased CEREP Panlabs (Eurofins)
# T4 sequence (P52333 1-1124): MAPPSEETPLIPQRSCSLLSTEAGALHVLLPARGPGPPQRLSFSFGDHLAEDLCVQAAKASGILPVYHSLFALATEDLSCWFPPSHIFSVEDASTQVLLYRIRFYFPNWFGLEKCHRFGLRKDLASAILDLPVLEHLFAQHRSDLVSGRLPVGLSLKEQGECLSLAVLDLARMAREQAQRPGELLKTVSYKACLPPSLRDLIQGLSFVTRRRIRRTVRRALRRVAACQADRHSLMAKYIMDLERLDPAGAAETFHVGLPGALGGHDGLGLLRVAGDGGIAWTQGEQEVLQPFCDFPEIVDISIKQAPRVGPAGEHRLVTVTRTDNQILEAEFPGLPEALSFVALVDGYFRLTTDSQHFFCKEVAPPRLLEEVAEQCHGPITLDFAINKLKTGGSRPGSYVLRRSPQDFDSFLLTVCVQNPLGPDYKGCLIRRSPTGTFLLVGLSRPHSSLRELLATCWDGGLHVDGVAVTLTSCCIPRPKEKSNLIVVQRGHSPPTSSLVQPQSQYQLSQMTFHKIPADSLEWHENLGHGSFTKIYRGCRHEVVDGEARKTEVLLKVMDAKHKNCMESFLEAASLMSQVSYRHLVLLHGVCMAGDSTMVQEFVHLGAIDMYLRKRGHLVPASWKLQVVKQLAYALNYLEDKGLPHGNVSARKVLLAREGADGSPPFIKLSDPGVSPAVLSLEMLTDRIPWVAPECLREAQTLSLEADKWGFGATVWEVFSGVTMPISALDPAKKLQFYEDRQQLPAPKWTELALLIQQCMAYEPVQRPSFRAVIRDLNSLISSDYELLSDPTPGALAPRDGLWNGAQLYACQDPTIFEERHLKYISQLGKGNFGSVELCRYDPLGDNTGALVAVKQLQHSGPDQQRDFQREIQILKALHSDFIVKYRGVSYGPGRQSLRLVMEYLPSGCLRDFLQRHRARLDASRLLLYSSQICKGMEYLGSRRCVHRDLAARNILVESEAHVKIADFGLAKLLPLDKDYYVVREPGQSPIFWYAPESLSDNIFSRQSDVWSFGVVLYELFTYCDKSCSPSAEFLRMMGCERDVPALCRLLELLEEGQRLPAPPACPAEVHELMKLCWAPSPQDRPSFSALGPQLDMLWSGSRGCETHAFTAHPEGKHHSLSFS
# STK33 = target: T5, STK33 (Homo sapiens, UniProt Q9BYT3); assay: CEREP protein kinase assay; assay type: biochemical
# T5 construct: purchased CEREP Panlabs (Eurofins)
# T5 sequence (Q9BYT3 whole entry): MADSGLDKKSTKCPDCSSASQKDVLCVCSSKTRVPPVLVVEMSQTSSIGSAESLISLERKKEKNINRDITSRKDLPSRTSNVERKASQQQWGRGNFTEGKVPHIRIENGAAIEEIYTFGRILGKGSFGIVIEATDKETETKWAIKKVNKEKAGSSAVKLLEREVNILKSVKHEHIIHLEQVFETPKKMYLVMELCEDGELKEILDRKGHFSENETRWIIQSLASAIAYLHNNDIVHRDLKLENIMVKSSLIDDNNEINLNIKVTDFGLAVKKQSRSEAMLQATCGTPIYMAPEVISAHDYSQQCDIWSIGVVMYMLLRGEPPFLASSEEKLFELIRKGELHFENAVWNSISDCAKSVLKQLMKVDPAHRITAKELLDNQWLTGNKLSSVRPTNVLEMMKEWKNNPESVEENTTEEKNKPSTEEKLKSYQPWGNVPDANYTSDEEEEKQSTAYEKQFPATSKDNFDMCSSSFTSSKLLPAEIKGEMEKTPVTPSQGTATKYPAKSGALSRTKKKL
smiles,measurement,setting,value
"O=c1[nH]ccc2cc(F)c(NS(=O)(=O)c3ccc(N4CC[C@@H](O)C4)s3)cc12 [LSN3213128, N-(6-Fluoro-1-oxo-1,2-dihydroisoquinolin-7-yl)-5-[(3R)-3-hydroxypyrrolidin-1-yl]thiophene-2-sulfonamide]",GI50,"cell lines of Table 1; low folate, 12 cell lines",4.4 ± 4.5 nM
same,GI50,"cell lines of Table 1; regular RPMI, 11 cell lines",2400 nM
same,inhibition at 0.2 µM,ERK1; @ 0.2 uM,-2.6%
same,inhibition at 2 µM,ERK1; @ 2 uM,9.15%
same,inhibition at 20 µM,ERK1; @ 20 uM,53.7%
same,inhibition at 0.2 µM,IKKe; @ 0.2 uM,-0.0712%
same,inhibition at 2 µM,IKKe; @ 2 uM,8.91%
same,inhibition at 20 µM,IKKe; @ 20 uM,11.7%
same,inhibition at 0.2 µM,IRK; @ 0.2 uM,-0.8%
same,inhibition at 2 µM,IRK; @ 2 uM,10.6%
same,inhibition at 20 µM,IRK; @ 20 uM,12.9%
same,inhibition at 0.2 µM,JAK3; @ 0.2 uM,-5.81%
same,inhibition at 2 µM,JAK3; @ 2 uM,2.78%
same,inhibition at 20 µM,JAK3; @ 20 uM,28.6%
same,inhibition at 0.2 µM,STK33; @ 0.2 uM,-5.61%
same,inhibition at 2 µM,STK33; @ 2 uM,15.3%
same,inhibition at 20 µM,STK33; @ 20 uM,-1.42%
